Where “and” joins values, the source holds several entries; their conditions need not be identical. Identical values can stand only once. Like-named read-outs stand apart in the source and are kept apart here.
Assays:
[1] = tested on: Giant foxtail (GIFT); assay: whole plant or invertebrate; assay type: in vivo; conditions: in vivo
[2] = tested on: Corn
[3] = tested on: Shattercane (SHCA); assay type: in vivo
[4] = tested on: Velvetleaf (VELE); assay type: in vivo, Abutilon theophrasti
[5] = Antidote 8.96 + Biocide No. 1 8.96 Kg/Ha PPI, Herb. No. 8 0.07, 5 DAP, before herbicide application
[6] = Antidote 8.96 + Biocide No. 1 8.96 Kg/Ha PPI, Herb. No. 8 0.07 POE, 13 DAP
[7] = Antidote 8.96 + Biocide No. 1 8.96 Kg/Ha PPI, Herbicide No. 7 0.28 POE, 13 days after planting
[8] = Herb. […], 5 DAP, before herbicide application
[9] = Table 14: Herbicide No. 7 (ACCENT) 0.84 Kg/Ha POE + Biocide No. 2 8.96 Kg/Ha PPI + antidote 8.96 Kg/Ha PPI, 13 days after planting, 8 days after herbicide
[10] = […], 13 days after planting, 8 days after herbicide
[11] = […], observed 10 days after herbicide application
[12] = Antidote 4.48 + Biocide No. 1 8.96 Kg/Ha PPI, Herb. No. 8 0.07, 5 DAP, before herbicide application
[13] = Antidote 4.48 + Biocide No. 1 8.96 Kg/Ha PPI, Herb. No. 8 0.07 POE, 13 DAP
[14] = Antidote 4.48 + Biocide No. 1 8.96 Kg/Ha PPI, Herbicide No. 7 0.28 POE, 13 days after planting
[15] = Table 14: Herbicide No. 7 (ACCENT) 0.84 Kg/Ha POE + Biocide No. 2 8.96 Kg/Ha PPI + antidote 4.48 Kg/Ha PPI, 13 days after planting, 8 days after herbicide

Row | Compound | % Inhibition GIFT [1] | % Inhibition 5 DAP Corn [2, 8] | % Inhibition Corn [2, 10] | % Inhibition Corn [2, 11] | % Inhibition 5 DAP Corn ([2]; in vivo) | % Inhibition 13 DAP Corn ([2]; in vivo) | % Inhibition 5 DAP SHCA [3, 8] | % Inhibition SHCA [3, 10] | % Inhibition SHCA [3, 11] | % Inhibition 5 DAP SHCA ([3]; in vivo) | % Inhibition 13 DAP SHCA ([3]; in vivo) | % Inhibition 5 DAP VELE [4, 8] | % Inhibition VELE [4, 10] | % Inhibition VELE [4, 11] | % Inhibition 5 DAP VELE ([4]; in vivo) | % Inhibition 13 DAP VELE ([4]; in vivo) | further results
1 | CC(N=C1SCC(=C(Cl)Cl)S1)c1ccccc1 (stereo not shown) [compound 4] | 50% and 65% and 60% and 90% and 55% | 0% | 25% | 65% | 15% | 30% | 0% | 90% | 65% | 30% | 65% | 0% | 70% | 80% | 0% | 90% | % Inhibition 5 DAP Corn [2, 5]: 10%; % Inhibition 13 DAP Corn [2, 6]: 60%; % Inhibition Corn [2, 7]: 50%; % Inhibition Corn [2, 9]: 15%; % Inhibition 5 DAP SHCA [3, 5]: 10%; % Inhibition 13 DAP SHCA [3, 6]: 85%; % Inhibition SHCA [3, 7]: 75%; % Inhibition 13 DAP SHCA ([3]; Herb. […], 13 DAP, after herbicide application): 90%; % Inhibition SHCA [3, 9]: 70%; % Inhibition SHCA ([3]; in vivo): 70% and 55% and 60% and 45%; % Inhibition 5 DAP VELE [4, 5]: 0%; % Inhibition 13 DAP VELE [4, 6]: 90%; % Inhibition VELE [4, 7]: 70%; % Inhibition VELE [4, 9]: 65%
2 | C=CCN(CC=C)C(=O)C(Cl)Cl [compound 2] | 50% and 55% and 80% and 60% and 70% and 90% | 0% | 15% | 60% | 20% | 45% | 0% | 90% | 65% | 20% | 85% | 0% | 60% | 80% | 0% | 85% | % Inhibition 5 DAP Corn [2, 12]: 10%; % Inhibition 13 DAP Corn [2, 13]: 50%; % Inhibition Corn [2, 14]: 30%; % Inhibition Corn [2, 15]: 20%; % Inhibition 5 DAP SHCA [3, 12]: 0%; % Inhibition 13 DAP SHCA [3, 13]: 85%; % Inhibition SHCA [3, 14]: 75%; % Inhibition SHCA [3, 15]: 75%; % Inhibition 5 DAP VELE [4, 12]: 0%; % Inhibition 13 DAP VELE [4, 13]: 95%; % Inhibition VELE [4, 14]: 65%; % Inhibition VELE [4, 15]: 70%
